# Earlier results in patent US20070166344A1, “Non-leaching surface-active film compositions for microbial adhesion prevention” (priority 2006, published 2007).
# Conditions: organism not given
substance,measurement,value
Benzalkonium chloride,MIC level,about 7.5 ppm
